Test [1] has as its target p38α activated, mitogen-activated protein kinase-activated protein kinase 2 (MAPKAP-K2 or MK2) enzyme (Homo sapiens (Human), UniProt P49137). Kind of test: MK2 Omnia continuous-read kinase assay for compound potency. Format: biochemical. The conditions noted are these: [MK-2]=0.4 nM, [ATP]=10 μM, [ST3-Sox]=10 μM; read-out: MK2 IC50. The source says:
Mitogen-Activated Protein Kinase-Activated Protein Kinase 2 Omnia® Assay for Compound Potency Assessment:
The protocol below describes a continuous-read kinase assay optimized to measure potency of compounds against p38α activated, mitogen-activated protein kinase-activated protein kinase 2 (MAPKAP-K2 or MK2) enzyme. Further details of this assay are described by Life Technologies, Carlsbad, Calif. on their website at the following URL: http://tools.lifetechnologies.com/content/sfs/manuals/omnia_kinase_assay_man.pdf.
[Reagent] used: • [MK-2]=0.4 nM, • [ATP]=10 μM and • [ST3-Sox]=10 μM (ATP^appKM=10 μM)
Kinase reactions were started with the addition of 45 μL of the ATP-peptide substrate S/T3-Sox mix and monitored every 71 seconds for 120 minutes at λex360/λem485 in a Synergy H4 plate reader from BioTek (Winooski, Vt.) at room temperature.
Background signals from the no enzyme control wells were subtracted from all progress curves. The initial linear portions of the net progress curves were fit according to a linear equation to yield the slope and percentage of inhibition (% inhibition) at each compound concentration. The net progress curves obtained during the first two hours of reactions were also fit according to an ascending single-exponential equation (Eq. 1) to yield kobs values at each compound concentration. Plots of % Inhibition versus inhibitor concentrations were fit according to a dose-response equation (Eq. 2) to generate IC50 and Hill slope values while plots of kobs versus inhibitor concentration were fit according to Equation 3 (Eq. 3) to generate apparent kinact/KI values using the GraphPad PRISM software (Version 6.00; GraphPad San Diego, Calif.).
[formula] where F is the fluorescence intensity from the plate reader, V0 is a constant reflecting the relationship between the instrument readout and product concentration, t is time, e is Euler's number, and kobs is the observed inactivation rate constant.
[formula] where % Inhibition is percentage of inhibition, IC50 is half maximal inhibitory concentration, [I] is the inhibitor concentration, and n is the Hill slope.

Test [2] concerns the target T1, MK2 (Homo sapiens (Human), UniProt P49137).
Test [3] concerns the target T1, MK2. As to the kind of experiment: MK2 cellular assay, total and phospho-Hsp27 (Serine 78) by MSD ELISA (Thp1). Conditions: Thp-1 cells, 1 hour compound, 50 ng/mL LPS 45 minutes, p-HSP27 (Ser78)/total HSP27; read-out: pHSP27 signaling EC50. Format: cell-based. As for the experimental part:
MK2 Cellular Assay—Detection of Total and Phospho-Hsp27 (Serine 78) by MSD ELISA (Thp1)
Compounds of the invention were assayed in Thp-1 human acute monocytic leukemia cells to measure inhibition of MK2 activity. Thp-1 cells were grown in culture medium containing RPMI/10% FBS (fetal bovine serum)/0.05 mM 2-mercaptoethanol. 72 hours prior to the assay, 8×10^4 cells per well were plated in a 96 well flat bottom plate along with 10 ng/mL phorbol 12-myristate 13-acetate (PMA). Cells were cultured in an incubator at 37° C. until needed for the assay. Cell plate media was replaced with culture media just prior to assay while compound dilutions were being made.
Stock solutions of test compound, 1 mM in DMSO, were prepared. 0.9 μl of test compound was added to 300 μl cell media for a starting concentration of 3000 nM. […] Cell plate media was discarded, followed by addition of 100 μl of the compound containing media. The resulting preparation was incubated at 37° C. for 1 hour.
Test compound-containing cell assay media was removed and the cells were washed once with cell assay media. Cell assay media containing 50 ng/mL LPS (lipopolysaccharide) was added to the each well and incubated for 45 minutes. Following LPS incubation, the cells were washed once with PBS (phosphate-buffered saline) and lysed with 60 μl Cell Extraction Buffer (Invitrogen #FNN0011) plus protease and phosphatase inhibitors. The plate was then stored at −80° C. until further analysis.
The MULTI-SPOT Phospho(Ser78)/Total HSP27 ELISA Assay kit was purchased from Meso Scale […] (MSD; catalog #K15128D). […] The pre-coated MSD plate was blocked with 150 μL/well of 3% BSA in MSD wash buffer. The preparation was placed on a shaker at room temperature for an hour. While the ELISA plate was blocked, the cell assay plate stored at −80° C. was placed on a shaker at 4° C. for 1 hour to thaw.
The blocked MSD plate was washed on a plate washer, tapping out the last bit of wash solution, followed by addition of 30 μl of the lysate from the cell assay plate. The preparation was covered and incubated for 1 hour at room temperature. The lysate was removed, the plate was washed 3 times on a plate washer and the last bit of wash buffer was tapped out and replaced with 25 μl/well detection antibody (anti-total HSP27 conjugated with an electrochemiluminescent compound, MSD SULFO-TAG label, supplied in kit) made in 1% BSA/MSD wash buffer. The plate was incubated for 1 hour at room temperature on a shaker, followed by 3 washes. The last bit of wash buffer was tapped out. 150 μl/well 1×MSD read buffer was added (4× read buffer supplied with kit) and the plate was analyzed on the MSD SECTOR® Imager for analysis. The SECTOR® Imager measures intensity of emitted light to provide a quantitative measure of phosphorylated HSP27 (Ser78) and total HSP27 present in the sample. The relative percent phosphoprotein in a sample is calculated by dividing the Phospho-HSP27 signal intensity over the total HSP27 signal intensity measured in each well.

The mark [4] stands for this setting: percentage of modified protein after 60 minutes at room temperature, 10-fold excess of compound, MALDI (I-1 to I-50), magnetic bead MALDI (I-51 to I-129).

Like-named read-outs stand apart in the source and are kept apart here.
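For Mass Modification in this document: covalent binding read from centroid mass shift of compound-treated versus untreated intact MK2, shift divided by compound molecular weight, giving fraction of total protein bound.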

Chain of p38α activated, mitogen-activated protein kinase-activated protein kinase 2 (MAPKAP-K2 or MK2) enzyme (P49137 whole entry): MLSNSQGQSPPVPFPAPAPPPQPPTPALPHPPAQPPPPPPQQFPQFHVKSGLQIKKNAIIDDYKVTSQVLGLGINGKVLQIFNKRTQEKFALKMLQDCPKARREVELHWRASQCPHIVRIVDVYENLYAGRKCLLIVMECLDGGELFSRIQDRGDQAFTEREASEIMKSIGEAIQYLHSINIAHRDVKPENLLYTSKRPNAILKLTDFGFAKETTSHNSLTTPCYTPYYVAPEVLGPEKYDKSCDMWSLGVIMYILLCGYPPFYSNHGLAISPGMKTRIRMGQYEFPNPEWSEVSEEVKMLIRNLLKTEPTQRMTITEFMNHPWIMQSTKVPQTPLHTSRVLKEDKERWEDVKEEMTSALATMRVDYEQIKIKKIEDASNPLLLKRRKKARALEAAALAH
T1 sequence (P49137 whole entry): as above

As to `CCOC(=O)c1cnc(SC)nc1Nc1ccc2c(ccc3sc4c(c32)NC[C@@H](C)NC4=O)n1` [I-12, (R)-ethyl 4-((10-methyl-8-oxo-9,10,11,12-tetrahydro-8H-[1,4]diazepino[5′,6′:4,5]thieno[3,2-f]quinolin-3-yl)amino)-2-(methylthio)pyrimidine-5-carboxylate], the IC50 in test [1] lay within 501 to 999 nM. Moreover, the “Mass Modification” value at MK2 [2] is “G (key: E: mass modification of ≧70%; F: mass modification of 31-69%; G: mass modification ≦30%)”.

In the case of `C[C@@H]1CNc2c(sc3ccc4nc(Nc5nccc(Cl)n5)ccc4c23)C(=O)N1` [I-13, (R)-3-((4-chloropyrimidin-2-yl)amino)-10-methyl-9,10,11,12-tetrahydro-8H-[1,4]diazepino[5′,6′:4,5]thieno[3,2-f]quinolin-8-one], the EC50 at MK2 [3] is greater than 1000 nM. At MK2 [2], the “Mass Modification” value is given as “G (key: E: mass modification of ≧70%; F: mass modification of 31-69%; G: mass modification ≦30%)”. Consider `C[C@@H]1CNc2c(sc3ccc4nc(Nc5nc(Cl)ncc5C(=O)NC5COC5)ccc4c23)C(=O)N1` [I-20, (R)-2-chloro-4-((10-methyl-8-oxo-9,10,11,12-tetrahydro-8H-[1,4]diazepino[5′,6′:4,5]thieno[3,2-f]quinolin-3-yl)amino)-N-(oxetan-3-yl)pyrimidine-5-carboxamide], for which, on MK2 [3], the EC50 is greater than 1000 nM. Besides, at MK2 [2] (setting [4]), the “Mass Modification” value is “G (mass modification ≦30%)”.

As for `C[C@@H]1CNc2c(sc3ccc4nc(Nc5nc(Cl)ncc5C(=O)NC5CC5)ccc4c23)C(=O)N1` [I-21, (R)-2-chloro-N-cyclopropyl-4-((10-methyl-8-oxo-9,10,11,12-tetrahydro-8H-[1,4]diazepino[5′,6′:4,5]thieno[3,2-f]quinolin-3-yl)amino)pyrimidine-5-carboxamide], the EC50 at MK2 [3] is greater than 1000 nM. Besides, the “Mass Modification” value on MK2 [2] (setting [4]) is recorded as “G (mass modification ≦30%)”. As for `CCOC(=O)c1cnc(Nc2ccc3c(ccc4sc5c(c43)NC[C@@H](C)NC5=O)n2)nc1Cl` [I-23, (R)-ethyl 4-chloro-2-((10-methyl-8-oxo-9,10,11,12-tetrahydro-8H-[1, 4]diazepino[5′,6′:4,5]thieno[3,2-f]quinolin-3-yl)amino)pyrimidine-5-carboxylate], the IC50 in test [1] is less than 100 nM. The “Mass Modification” value at MK2 [2] (setting [4]) is reported as “G (mass modification ≦30%)”. On to `CN(C)C[C@@H]1CNc2c(sc3ccc4nc(Nc5cc(F)ncn5)ccc4c23)C(=O)N1` [I-31, (S)-10-((dimethylamino)methyl)-3-((6-fluoropyrimidin-4-yl)amino)-9,10,11,12-tetrahydro-8H-[1,4]diazepino[5′,6′:4,5]thieno[3,2-f]quinolin-8-one], for which the EC50 on MK2 [3] was greater than 1000 nM. Further, at MK2 [2] (setting [4]), the “Mass Modification” value is “F (mass modification of 31-69%)”.

In the case of `C[C@@H]1CNc2c(sc3ccc4nc(Nc5cc(F)nc(OCCN6CCN(C)CC6)n5)ccc4c23)C(=O)N1` [I-48, (R)-3-((6-fluoro-2-(2-(4-methylpiperazin-1-yl)ethoxy)pyrimidin-4-yl)amino)-10-methyl-9,10,11,12-tetrahydro-8H-[1,4]diazepino[5′,6′:4,5]thieno[3,2-f]quinolin-8-one], the IC50 in test [1] is less than 100 nM. Also, the EC50 at MK2 [3] is greater than 1000 nM.

Turning to `COCCOc1cc(Cl)nc(Nc2ccc3c(ccc4sc5c(c43)NC[C@@H](C)NC5=O)n2)n1` [I-69, (R)-3-((4-chloro-6-(2-methoxyethoxy)pyrimidin-2-yl)amino)-10-methyl-9,10,11,12-tetrahydro-8H-[1,4]diazepino[5′,6′:4,5]thieno[3,2-f]quinolin-8-one], the IC50 in test [1] is less than 100 nM. On MK2 [2] (setting [4]), the “Mass Modification” value is reported as “G (mass modification ≦30%)”. For `CC(C)CN(Cc1cnc(Cl)nc1Oc1ccc2c(ccc3sc4c(c32)NC[C@@H](C)NC4=O)n1)CC(C)C` [I-88, (R)-3-((2-chloro-5-((diisobutylamino)methyl)pyrimidin-4-yl)oxy)-10-methyl-9,10,11,12-tetrahydro-8H-[1,4]diazepino[5′,6′:4,5]thieno[3,2-f]quinolin-8-one], the IC50 in test [1] was greater than 1000 nM. Moreover, the “Mass Modification” value at MK2 [2] (setting [4]) was “F (mass modification of 31-69%)”. Take `C[C@@H]1CNc2c(sc3ccc4nc(Oc5nc(Cl)ncc5CN5CCC[C@H]5C)ccc4c23)C(=O)N1` [I-99, (R)-3-((2-chloro-5-(((R)-2-methylpyrrolidin-1-yl)methyl)pyrimidin-4-yl)oxy)-10-methyl-9,10,11,12-tetrahydro-8H-[1,4]diazepino[5′,6′:4,5]thieno[3,2-f]quinolin-8-one]: in test [1], the IC50 was less than 100 nM. The EC50 at MK2 [3] is less than 100 nM.

In the case of `C[C@@H]1CNc2c(sc3ccc4nc(Oc5nc(Cl)ncc5CN5CCC[C@@H]5C)ccc4c23)C(=O)N1` [I-101], the IC50 in test [1] was less than 100 nM. For the same compound, on MK2 [3], the EC50 is less than 100 nM. In the case of `C[C@@H]1CNc2c(sc3ccc4nc(Oc5ncncc5CN(C)C(C)(C)C)ccc4c23)C(=O)N1` [I-104, (R)-3-((5-((tert-butyl(methyl)amino)methyl)pyrimidin-4-yl)oxy)-10-methyl-9,10,11,12-tetrahydro-8H-[1,4]diazepino[5′,6′:4,5]thieno[3,2-f]quinolin-8-one], the IC50 in test [1] fell in the range of 501 to 999 nM. Also, on MK2 [3], the EC50 is greater than 1000 nM. Turning to `CO[C@H]1CCCN(Cc2cnc(Cl)nc2Oc2ccc3c(ccc4sc5c(c43)NC[C@@H](C)NC5=O)n2)C1` [I-106, (R)-3-((2-chloro-5-(((S)-3-methoxypiperidin-1-yl)methyl)pyrimidin-4-yl)oxy)-10-methyl-9,10,11,12-tetrahydro-8H-[1,4]diazepino[5′,6′:4,5]thieno[3,2-f]quinolin-8-one], the IC50 in test [1] fell in the range of 101 to 500 nM. Further, the EC50 on MK2 [3] was less than 100 nM. As to `C[C@@H]1CNc2c(sc3ccc4nc(Oc5nc(Cl)nc6c5CCCC6)ccc4c23)C(=O)N1` [I-109, (R)-3-((2-chloro-5,6,7,8-tetrahydroquinazolin-4-yl)oxy)-10-methyl-9,10,11,12-tetrahydro-8H-[1,4]diazepino[5′,6′:4,5]thieno[3,2-f]quinolin-8-one], in test [1], the IC50 is 101 to 500 nM.

For `C[C@@H]1CNc2c(sc3ccc4nc(Oc5cc(CNC(C)(C)C)nc(Cl)n5)ccc4c23)C(=O)N1` [I-117, (R)-3-((6-((tert-butylamino)methyl)-2-chloropyrimidin-4-yl)oxy)-10-methyl-9,10,11,12-tetrahydro-8H-[1,4]diazepino[5′,6′:4,5]thieno[3,2-f]quinolin-8-one], the EC50 at MK2 [3] is less than 100 nM.

The values are drawn from patent publication US9790235B2, “MK2 inhibitors and uses thereof” (Celgene CAR LLC, priority 2014, dated 2017).
